# Laboratory results as given in publication PMC3785365 (Clinical cancer research : an official journal of the …, 2011).
# Assays:
# P110α = P110α (Homo sapiens, UniProt P42336); settings: cited from earlier work
# p110γ = settings: cited from earlier work
# p110δ = settings: cited from earlier work
# [1] = tested on: phosphorylation of S6 and 4E-BP1; test: Western blot of mTOR signaling; format: cell-based, human; settings: glioma cells
# [2] = tested on: U87 intracranial xenografts; test: Intracranial U87 glioma xenograft survival model; format: in vivo; settings: nude mice, control 26 days
# [3] = Tolerability in treated tumor-bearing mice; format: in vivo; settings: 20 or 40 mg/kg oral
# FGFR3 = FGFR3 (Homo sapiens, UniProt P22607); test: Biochemical kinase assay, FGFR3
# PDK1 = target: T1, PDK1 (Homo sapiens, UniProt O15530); test: Biochemical kinase assay, PDK1
# T1 sequence (O15530 1-556): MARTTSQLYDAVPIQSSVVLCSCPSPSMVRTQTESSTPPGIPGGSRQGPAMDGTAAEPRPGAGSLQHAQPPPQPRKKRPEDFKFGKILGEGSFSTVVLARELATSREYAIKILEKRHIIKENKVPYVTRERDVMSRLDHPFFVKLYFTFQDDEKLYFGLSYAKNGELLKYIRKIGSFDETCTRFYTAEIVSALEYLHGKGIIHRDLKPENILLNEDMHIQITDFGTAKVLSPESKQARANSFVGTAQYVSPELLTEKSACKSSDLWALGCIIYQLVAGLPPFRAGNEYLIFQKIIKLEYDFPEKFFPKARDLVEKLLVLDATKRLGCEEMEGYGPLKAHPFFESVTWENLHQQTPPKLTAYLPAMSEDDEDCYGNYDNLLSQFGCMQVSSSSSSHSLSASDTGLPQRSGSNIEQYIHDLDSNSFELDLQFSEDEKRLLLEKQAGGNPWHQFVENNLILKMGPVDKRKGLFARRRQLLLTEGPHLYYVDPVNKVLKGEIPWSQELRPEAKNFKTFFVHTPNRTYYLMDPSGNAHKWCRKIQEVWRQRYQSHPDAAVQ
# U251 cells = test: Mitotic index; format: cell-based, human; settings: U251 (p53-mutant/deleted); 2 μm, 72 hours; control cells 1% to 3%
# glioma cell lines = test: Annexin V apoptosis assay by flow cytometry; settings: 72 hours
# c-Met = c-Met (Homo sapiens, UniProt P08581); test: Biochemical kinase assay, c-Met
# U343 cells = test: Mitotic index; format: cell-based, human; settings: U343 (p53-wt); 2 μm, 72 hours; control cells 1% to 3%
# phosphorylation of Akt = test: Inhibition of Akt phosphorylation by immunoblot in U87MG and LN18 cells; settings: Homo sapiens, read-out: IC50 for inhibiting phosphorylation of Akt
# U87 cells = test: Mitotic index; format: cell-based, human; settings: U87 (p53-wt); 2 μm, 72 hours; control cells 1% to 3%
# D54 cells = test: Mitotic index; format: cell-based, human; settings: D54 (p53-wt); 2 μm, 72 hours; control cells 1% to 3%
# LN18 cells = test: Mitotic index; format: cell-based, human; settings: LN18 (p53-mutant/deleted); 2 μm, 72 hours; control cells 1% to 3%
# Tek = Tek (Homo sapiens, UniProt Q02763); test: Biochemical kinase assay, Tek
# KDR = KDR (Homo sapiens, UniProt P35968); test: Biochemical kinase assay, KDR
# LN229 cells = test: Mitotic index; format: cell-based, human; settings: LN229 (p53-mutant/deleted); 2 μm, 72 hours; control cells 1% to 3%
# FGFR3, sequence (P22607 23-806, species assumed): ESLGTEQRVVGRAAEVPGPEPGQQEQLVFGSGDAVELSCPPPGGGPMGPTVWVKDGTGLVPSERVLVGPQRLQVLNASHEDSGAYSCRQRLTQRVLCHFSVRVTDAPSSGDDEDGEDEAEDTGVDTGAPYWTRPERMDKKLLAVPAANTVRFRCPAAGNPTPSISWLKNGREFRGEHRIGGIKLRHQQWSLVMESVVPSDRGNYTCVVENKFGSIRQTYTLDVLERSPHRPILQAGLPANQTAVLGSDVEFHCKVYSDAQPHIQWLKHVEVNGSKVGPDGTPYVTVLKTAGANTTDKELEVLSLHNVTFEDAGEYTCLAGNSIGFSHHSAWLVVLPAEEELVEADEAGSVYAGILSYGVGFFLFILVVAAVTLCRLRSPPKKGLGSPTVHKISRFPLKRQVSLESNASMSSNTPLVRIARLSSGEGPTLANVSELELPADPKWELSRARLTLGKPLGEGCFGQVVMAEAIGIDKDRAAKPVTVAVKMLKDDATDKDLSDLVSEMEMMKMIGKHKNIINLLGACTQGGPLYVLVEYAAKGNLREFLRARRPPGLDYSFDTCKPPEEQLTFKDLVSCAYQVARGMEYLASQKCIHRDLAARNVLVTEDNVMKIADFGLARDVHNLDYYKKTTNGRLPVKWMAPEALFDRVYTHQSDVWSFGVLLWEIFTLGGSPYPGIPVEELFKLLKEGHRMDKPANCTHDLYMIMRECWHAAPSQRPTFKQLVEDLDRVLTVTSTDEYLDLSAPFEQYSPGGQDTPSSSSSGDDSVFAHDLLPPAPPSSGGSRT
# P110α, sequence (P42336 whole entry): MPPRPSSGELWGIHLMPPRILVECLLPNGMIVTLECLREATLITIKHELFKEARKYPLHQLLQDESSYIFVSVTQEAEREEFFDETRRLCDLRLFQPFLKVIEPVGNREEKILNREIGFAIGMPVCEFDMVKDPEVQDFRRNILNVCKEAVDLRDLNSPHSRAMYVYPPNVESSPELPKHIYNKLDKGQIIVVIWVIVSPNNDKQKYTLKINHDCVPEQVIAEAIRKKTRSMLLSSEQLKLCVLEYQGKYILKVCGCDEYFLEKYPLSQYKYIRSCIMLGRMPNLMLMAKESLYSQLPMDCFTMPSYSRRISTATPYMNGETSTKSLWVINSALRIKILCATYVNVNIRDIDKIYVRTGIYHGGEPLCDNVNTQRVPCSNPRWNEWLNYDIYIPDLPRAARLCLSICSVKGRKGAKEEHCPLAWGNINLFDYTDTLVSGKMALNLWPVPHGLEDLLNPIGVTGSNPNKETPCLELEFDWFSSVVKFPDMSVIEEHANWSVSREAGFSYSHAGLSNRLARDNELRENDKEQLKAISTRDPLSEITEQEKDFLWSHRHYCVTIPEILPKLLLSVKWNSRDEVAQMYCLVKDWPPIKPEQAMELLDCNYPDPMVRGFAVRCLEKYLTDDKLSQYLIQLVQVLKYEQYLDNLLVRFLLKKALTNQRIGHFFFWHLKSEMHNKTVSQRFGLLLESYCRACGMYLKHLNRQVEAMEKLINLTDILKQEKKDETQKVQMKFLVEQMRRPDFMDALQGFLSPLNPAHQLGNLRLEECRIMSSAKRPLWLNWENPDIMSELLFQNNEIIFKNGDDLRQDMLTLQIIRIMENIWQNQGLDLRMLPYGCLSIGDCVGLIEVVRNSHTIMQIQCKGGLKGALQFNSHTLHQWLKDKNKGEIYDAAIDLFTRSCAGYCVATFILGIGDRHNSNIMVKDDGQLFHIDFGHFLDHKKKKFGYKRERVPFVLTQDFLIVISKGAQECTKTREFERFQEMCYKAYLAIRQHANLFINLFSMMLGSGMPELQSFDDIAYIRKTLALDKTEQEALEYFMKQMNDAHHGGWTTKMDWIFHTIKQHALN
# P110α, sequence (P27986 whole entry partner): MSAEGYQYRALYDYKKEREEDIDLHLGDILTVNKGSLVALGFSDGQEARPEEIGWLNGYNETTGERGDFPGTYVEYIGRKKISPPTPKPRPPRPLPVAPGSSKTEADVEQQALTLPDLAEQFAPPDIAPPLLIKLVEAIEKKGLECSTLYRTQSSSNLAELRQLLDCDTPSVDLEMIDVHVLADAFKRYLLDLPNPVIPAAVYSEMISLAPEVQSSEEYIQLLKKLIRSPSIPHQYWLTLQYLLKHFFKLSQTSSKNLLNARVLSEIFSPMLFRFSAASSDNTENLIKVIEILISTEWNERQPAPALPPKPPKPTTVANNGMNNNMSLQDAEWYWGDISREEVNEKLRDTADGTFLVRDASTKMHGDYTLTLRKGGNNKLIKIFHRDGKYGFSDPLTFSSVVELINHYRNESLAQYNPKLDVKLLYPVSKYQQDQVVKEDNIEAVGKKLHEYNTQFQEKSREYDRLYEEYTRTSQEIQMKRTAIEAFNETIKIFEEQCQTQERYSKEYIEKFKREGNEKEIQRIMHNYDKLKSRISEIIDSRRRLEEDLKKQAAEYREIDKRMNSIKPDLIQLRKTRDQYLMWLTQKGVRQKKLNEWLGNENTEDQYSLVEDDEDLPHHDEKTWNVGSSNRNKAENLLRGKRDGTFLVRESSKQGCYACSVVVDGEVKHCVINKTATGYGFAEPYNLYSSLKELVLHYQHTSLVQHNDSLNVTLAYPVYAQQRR
# Tek, sequence (Q02763 23-1124, species assumed): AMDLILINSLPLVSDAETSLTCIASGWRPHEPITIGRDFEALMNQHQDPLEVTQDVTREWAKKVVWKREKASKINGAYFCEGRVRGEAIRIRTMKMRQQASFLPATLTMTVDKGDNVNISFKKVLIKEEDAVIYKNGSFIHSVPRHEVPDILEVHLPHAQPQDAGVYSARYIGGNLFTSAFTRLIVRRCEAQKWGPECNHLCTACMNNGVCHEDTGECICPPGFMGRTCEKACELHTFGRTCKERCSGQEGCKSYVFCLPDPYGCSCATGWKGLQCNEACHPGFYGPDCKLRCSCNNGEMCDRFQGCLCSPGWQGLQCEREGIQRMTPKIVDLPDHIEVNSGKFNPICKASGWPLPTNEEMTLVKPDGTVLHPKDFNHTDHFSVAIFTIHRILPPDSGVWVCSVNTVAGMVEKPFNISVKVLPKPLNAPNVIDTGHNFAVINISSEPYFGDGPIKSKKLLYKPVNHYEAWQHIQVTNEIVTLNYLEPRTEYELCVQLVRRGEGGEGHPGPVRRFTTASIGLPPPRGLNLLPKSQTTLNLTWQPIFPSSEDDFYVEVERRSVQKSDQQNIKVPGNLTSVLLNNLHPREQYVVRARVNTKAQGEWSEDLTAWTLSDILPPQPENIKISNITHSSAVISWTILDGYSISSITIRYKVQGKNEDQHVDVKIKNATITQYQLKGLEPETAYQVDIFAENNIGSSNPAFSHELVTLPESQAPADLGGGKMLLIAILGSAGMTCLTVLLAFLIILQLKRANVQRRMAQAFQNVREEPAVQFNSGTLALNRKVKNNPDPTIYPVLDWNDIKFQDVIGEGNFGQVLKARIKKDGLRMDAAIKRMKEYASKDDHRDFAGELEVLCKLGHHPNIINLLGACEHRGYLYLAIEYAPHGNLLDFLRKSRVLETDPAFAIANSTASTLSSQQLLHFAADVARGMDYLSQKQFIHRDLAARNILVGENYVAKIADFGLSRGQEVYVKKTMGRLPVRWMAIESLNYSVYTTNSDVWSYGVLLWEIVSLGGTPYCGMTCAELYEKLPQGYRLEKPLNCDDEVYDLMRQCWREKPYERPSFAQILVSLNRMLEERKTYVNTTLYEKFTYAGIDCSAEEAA
# c-Met, sequence (P08581 25-1390): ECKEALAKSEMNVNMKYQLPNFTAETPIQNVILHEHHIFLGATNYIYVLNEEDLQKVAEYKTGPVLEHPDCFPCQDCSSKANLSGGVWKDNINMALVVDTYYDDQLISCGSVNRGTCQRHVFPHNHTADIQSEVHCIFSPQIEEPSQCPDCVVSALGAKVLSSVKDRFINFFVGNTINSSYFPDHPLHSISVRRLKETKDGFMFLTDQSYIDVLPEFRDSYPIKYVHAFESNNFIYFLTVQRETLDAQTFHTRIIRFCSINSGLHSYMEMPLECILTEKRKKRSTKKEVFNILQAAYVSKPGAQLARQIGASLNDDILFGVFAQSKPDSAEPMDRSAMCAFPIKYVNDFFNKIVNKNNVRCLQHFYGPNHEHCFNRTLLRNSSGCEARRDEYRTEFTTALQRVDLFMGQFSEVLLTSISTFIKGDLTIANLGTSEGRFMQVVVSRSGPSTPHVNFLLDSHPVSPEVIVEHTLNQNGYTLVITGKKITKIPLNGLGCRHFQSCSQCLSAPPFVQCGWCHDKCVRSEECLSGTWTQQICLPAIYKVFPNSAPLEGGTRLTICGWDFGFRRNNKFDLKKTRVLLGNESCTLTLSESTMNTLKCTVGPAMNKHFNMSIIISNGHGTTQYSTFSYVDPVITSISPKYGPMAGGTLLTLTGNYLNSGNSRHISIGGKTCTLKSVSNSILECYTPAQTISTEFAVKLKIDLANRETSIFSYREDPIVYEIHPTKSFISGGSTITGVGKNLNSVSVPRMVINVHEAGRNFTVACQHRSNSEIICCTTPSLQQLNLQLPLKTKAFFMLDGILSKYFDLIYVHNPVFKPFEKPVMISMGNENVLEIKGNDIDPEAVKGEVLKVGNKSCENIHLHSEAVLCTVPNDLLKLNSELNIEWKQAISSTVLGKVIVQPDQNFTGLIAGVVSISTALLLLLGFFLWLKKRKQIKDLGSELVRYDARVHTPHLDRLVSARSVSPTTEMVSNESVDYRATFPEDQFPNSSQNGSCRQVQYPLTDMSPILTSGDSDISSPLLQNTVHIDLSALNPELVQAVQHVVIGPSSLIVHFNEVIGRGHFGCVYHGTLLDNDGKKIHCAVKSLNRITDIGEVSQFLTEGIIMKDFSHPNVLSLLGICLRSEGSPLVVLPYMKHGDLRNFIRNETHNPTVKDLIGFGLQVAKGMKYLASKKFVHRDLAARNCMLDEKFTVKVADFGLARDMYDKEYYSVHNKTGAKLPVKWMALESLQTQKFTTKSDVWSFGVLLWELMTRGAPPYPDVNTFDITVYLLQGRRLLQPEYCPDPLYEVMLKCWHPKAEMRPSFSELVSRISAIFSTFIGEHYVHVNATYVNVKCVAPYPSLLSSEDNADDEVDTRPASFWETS
smiles,measurement,setting,value
C=CCN(/C=C1/C(=O)O[C@H](COC)[C@@]2(C)C1=C(O)C(=O)C1=C2[C@H](OC(C)=O)C[C@]2(C)C(=O)CC[C@@H]12)CC=C [PX-866],IC50,P110α,low nanomolar range
same,IC50,p110γ,low nanomolar range
same,IC50,p110δ,low nanomolar range
"Cn1c(=O)n(-c2ccc(C(C)(C)C#N)cc2)c2c3cc(-c4cnc5ccccc5c4)ccc3ncc21 [NVP-BEZ235, reference compound]",effect on phosphorylation of S6 and 4E-BP1,[1],nearly complete dephosphorylation of both S6 and 4E-BP1
Nc1cc(C(F)(F)F)c(-c2cc(N3CCOCC3)nc(N3CCOCC3)n2)cn1 [NVP-BKM120],median survival time,[2]; 20 mg/kg oral,38 days
same,median survival time,[2]; 40 mg/kg oral,48 days
same,"adverse effects with respect to body weight, water intake, and general activity",[3],no obvious signs of adverse effects
same,IC50,FGFR3,> 10 µM
same,IC50,PDK1,> 10 µM
same,cells in mitosis (phospho-H3 positive) after treatment,U251 cells,12.4%
same,change of the percentage of apoptosis (Annexin V),glioma cell lines; p53-mutant/deleted cell lines,3.98%
same,change of the percentage of apoptosis (Annexin V),glioma cell lines; p53-wt cell lines,14.52%
same,IC50,c-Met,> 10 µM
same,cells in mitosis (phospho-H3 positive) after treatment,U343 cells,3%
same,IC50,phosphorylation of Akt,0.5 to 1 µM
same,cells in mitosis (phospho-H3 positive) after treatment,U87 cells,2.6%
same,cells in mitosis (phospho-H3 positive) after treatment,D54 cells,2.8%
same,cells in mitosis (phospho-H3 positive) after treatment,LN18 cells,7.3%
same,IC50,Tek,> 10 µM
same,effect on phosphorylation of S6 and 4E-BP1,[1],minor dephosphorylation only of the S6 protein
same,IC50,KDR,> 10 µM
same,cells in mitosis (phospho-H3 positive) after treatment,LN229 cells,7.9%
